Data published in US10611740B2, “Aryl dihydro-2H-benzo[b][1,4]oxazine sulfonamide and related compounds for use as agonists of RORγ and the treatment of disease” (Lycera Corporation, priority 2015, dated 2020).

target: T1, Gal4-RORγ-LBD (Homo sapiens, UniProt P51449); assay: Gal4-RORγ Luciferase Reporter Assay in HEK-293T Cells; type: cell-based; settings: HEK-293 cells, 2 μM ursolic acid
T1 construct: expressed in transfected cells; host or cells: HEK-293 cells (pcDNA3.1neo plasmid)
T1 sequence (P51449 269-508 limits assumed): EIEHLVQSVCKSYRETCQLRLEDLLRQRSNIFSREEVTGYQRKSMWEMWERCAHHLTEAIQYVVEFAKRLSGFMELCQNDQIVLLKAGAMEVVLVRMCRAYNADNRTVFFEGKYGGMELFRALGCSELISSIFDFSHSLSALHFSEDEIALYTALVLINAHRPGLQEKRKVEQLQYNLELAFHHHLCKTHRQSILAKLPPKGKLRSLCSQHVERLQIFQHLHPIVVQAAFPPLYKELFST
Method in brief: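 Luminescence read-out (One-Glo, 10 min RT) after overnight compound exposure at 37 °C in HEK-293 cells carrying Gal4-RORγ-LBD plus a Gal4-luciferase reporter, in the presence of 2 μM ursolic acid. Max Response is the upper plateau from a 4-parameter logistic fit, normalized to untreated signal = 100.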

Structure (SMILES)	EC50 [nM]	Gal4-RORγ Assay Max Response
O=C(O)[C@]1(C[C@H]2CN(S(=O)(=O)c3cccc(C(F)(F)F)c3)c3cc(-c4cc(F)cc(OC(F)F)c4)ccc3O2)C[C@](O)(CO)C1 [Compound 87, (1r,3R)-1-(((S)-6-(3-(difluoromethoxy)-5-fluorophenyl)-4-((3-(trifluoromethyl)phenyl)sulfonyl)-3,4-dihydro-2H-benzo[b][1,4]oxazin-2-yl)methyl)-3-hydroxy-3-(hydroxymethyl)cyclobutane-1-carboxylic acid]	500 to 5000	** (The symbol “**” indicates a value in the range of greater than 90 to 150)
O=C(O)[C@]1(C[C@H]2CN(S(=O)(=O)c3cccc(C(F)(F)F)c3)c3cc(-c4cc(F)ccc4F)ccc3O2)C[C@](O)(CO)C1 [Compound 89D, (1r,3R)-1-(((S)-6-(2,5-difluoro-phenyl)-4-((3-(trifluoromethyl)-phenyl)sulfonyl)-3,4-dihydro-2H-benzo[b][1,4]oxazin-2-yl)methyl)-3-hydroxy-3-(hydroxymethyl)-cyclobutane-1-carboxylic acid]	500 to 5000	** (The symbol “**” indicates a value in the range of greater than 90 to 150)
O=C(O)[C@]1(C[C@H]2CN(S(=O)(=O)c3cccc(C(F)(F)F)c3)c3cc(-c4cc(F)ccc4F)ccc3O2)C[C@@](O)(CO)C1 [Compound 89E, (1s,3S)-1-(((S)-6-(2,5-difluoro-phenyl)-4-((3-(trifluoromethyl)-phenyl)sulfonyl)-3,4-dihydro-2H-benzo[b][1,4]oxazin-2-yl)methyl)-3-hydroxy-3-(hydroxymethyl)-cyclobutane-1-carboxylic acid]	500 to 5000	** (The symbol “**” indicates a value in the range of greater than 90 to 150)

Second part, led by results:

EC50 [nM]	Structure (SMILES)	Gal4-RORγ Assay Max Response
500 to 5000	CC(C)(O[C@@H]1Cc2ccc(-c3cc(F)cc(OC(F)F)c3)cc2N(S(=O)(=O)c2cccc(C(F)(F)F)c2)C1)C(=O)O [Compound 83D, (R)-2-((7-(3-(difluoromethoxy)-5-fluorophenyl)-1-((3-(trifluoromethyl)phenyl)sulfonyl)-1,2,3,4-tetrahydroquinolin-3-yl)oxy)-2-methylpropanoic acid]	** (The symbol “**” indicates a value in the range of greater than 90 to 150)
500 to 5000	O=C(O)CO[C@@H]1Cc2ccc(-c3cc(F)cc(OC(F)F)c3)cc2N(S(=O)(=O)c2cccc(C(F)(F)F)c2)C1 [Compound 83E, (R)-2-((7-(3-(difluoromethoxy)-5-fluorophenyl)-1-((3-(trifluoro-methyl)phenyl)sulfonyl)-1,2,3,4-tetrahydroquinolin-3-yl)oxy)acetic acid]	* (The symbol “*” indicates a value in the range of 25 to 90)
500 to 5000	CC(C)(O[C@H]1Cc2ccc(-c3cc(F)cc(OC(F)F)c3)cc2N(S(=O)(=O)c2cccc(C(F)(F)F)c2)C1)C(=O)O [Compound 83F, (S)-2-((7-(3-(difluoromethoxy)-5-fluorophenyl)-1-((3-(trifluoromethyl)phenyl)sulfonyl)-1,2,3,4-tetrahydroquinolin-3-yl)oxy)-2-methylpropanoic acid]	* (The symbol “*” indicates a value in the range of 25 to 90)
